In patent US5270302A, “Derivatives of tetrapeptides as CCK agonists” (priority 1991, dated 1993):
Read-outs that look alike come from different tables or passages of the source. *1 amine or outer side, *2 acyl side, *3 side chain or, on linkers, in order; H or OH if unused. Where a SMILES comes first, the peptide text is derived from it. Side-chain parts run from the residue outwards. [ ]: non-standard residue; d: D form. The star is where a group is joined. 2Naphthoyl(6-OH) = O=C(c1ccc2cc(O)ccc2c1)*; Desaminotyrosyl = O=C(CCc1ccc(O)cc1)*; NH(1-naphthyl) = c1ccc2c(N*)cccc2c1; NMeF = CN[C@@H](Cc1ccccc1)C(=O)O; X11 = O=C(C=Cc1ccc(Cl)c(Cl)c1)*; NMeD = CN[C@@H](CC(=O)O)C(=O)O; NH(2-Me-phenyl) = Cc1ccccc1N*; X18 = O=C(/C=C/c1ccc(Cl)cc1)*; X14 = O=[N+]([O-])c1ccccc1N*; X8 = O=C(C=Cc1ccc(O)c(O)c1)*; X7 = Cc1ccc(/C=C/C(=O)*)cc1; X13 = O=C(C=Cc1ccc(F)cc1)*; X21 = O=C(C=Cc1cccc(O)c1)*; X1 = O=C(C=Cc1ccc(O)cc1)*; X26 = Clc1cccc(Cl)c1N*; Boc = CC(C)(C)OC(=O)*; X24 = CC(C)c1ccccc1N*; CO = O=C([*:1])[*:2]; NHPh = c1ccc(N*)cc1; NHtBu = CC(C)(C)N*; X16 = COc1ccccc1N*; X19 = Brc1ccccc1N*

Assays:
Type-B CCK receptor = molecular target: T1, Type-B CCK receptor (Cavia porcellus, UniProt H0VZC5); assay: Radioligand binding of [125I]BH-CCK-8 in guinea pig cerebral cortical membrane preparations
T1 construct: Cortical and pancreatic membranes were prepared as described; from tissue; host or cells: guinea pig cerebral cortex membranes
T1 sequence (H0VZC5 1-426): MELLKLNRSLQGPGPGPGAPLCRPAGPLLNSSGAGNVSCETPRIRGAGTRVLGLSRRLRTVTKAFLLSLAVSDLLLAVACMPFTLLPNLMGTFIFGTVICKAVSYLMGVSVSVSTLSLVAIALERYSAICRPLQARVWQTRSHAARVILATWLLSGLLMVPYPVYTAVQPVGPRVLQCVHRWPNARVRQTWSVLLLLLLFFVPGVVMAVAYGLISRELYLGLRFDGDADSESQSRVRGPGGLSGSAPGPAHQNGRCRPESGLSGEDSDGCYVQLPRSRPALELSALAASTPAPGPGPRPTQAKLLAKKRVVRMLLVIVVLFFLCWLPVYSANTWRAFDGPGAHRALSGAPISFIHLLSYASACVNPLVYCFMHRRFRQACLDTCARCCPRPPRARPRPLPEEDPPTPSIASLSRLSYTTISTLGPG
Source text: (§1) CCK-8 [Asp-Tyr(SO3 H)-Met-Gly-Trp-Met-Asp-PheNH2 ], bestatin and phosphoramidion were purchased from Peptide International (Louisville, Ky.). EGTA (ethylene glycol-bis-(β-aminoethyl) N,N,N',N'-tetraacetic acid), HEPES (4-(2-hydroxyethyl)-1-piperazine-enthanesulfonic acid) and BSA (bovine serum albumin) were purchased from Sigma Chemical Co. (St. Louis, Mo.). [^125 I]-Bolton-Hunteer (BH-CCK-8) (specific activity, 2200 Ci/mmol) was obtained from New England Nuclear (Boston, Mass.). Male guinea pigs, 250 to 325 g, were obtained from Scientific Small Animal Laboratory and Farm (Arlington Heights, Ill.). Collagenase, code CLSPA was purchased from Worthington (Frehold, N.J.).
(§2) Protocol For Radioligand Binding Experiments in Guinea Pig Cerebral Cortical and Pancreatic Membrane Preparations
(§3) Cortical and pancreatic membranes were prepared as described (Lin and Miller; J. Pharmacol. Exp. Ther. 1985, 232:775-780,). In brief, cortex and pancreas were removed and rinsed with ice-cold saline. Visible fat and connective tissues were removed from the pancreas. […] The homogenates were entrifuged for 10 minutes at 1075×g and pellets were discarded. The supernatants were saved and centrifuged at 38,730×g for 20 minutes. The resultant pellets were rehomogenized in 25 mL of 50 mM Tris-HCl buffer with a Teflon-glass homogenizer, 5 up and down strokes. The homogenates were centrifuged again at 38,730×g for 20 minutes. Pellets werre then resuspended in 20 mM HEPES, containing 1 mM EGTA, 118 mM NaCl, 4.7 mM KCl, 5 mM MgCl2, 100 μM bestatin, 3 μM phosphoramidon, pH 7.4 at 22° C. with a Teflon-glass homogenizer, 15 up and down strokes. Resuspension volume for the cortex was 15-18 mL per gram of original wet weight and 60 mL per gram for the pancreas.
(§4) [^125 I]Bolton-Hunter CCK-8 and test compounds were diluted with HEPES-EGTA-salt buffer (see above) containing 0.5% BSA. To 1 mL Skatron polystyrene tubes were added 25 μL of test compounds, 25 μL of [^125 I]BH-CCK-8 and 200 μL of membrane suspension. The final BSA concentration was 0.1%. The cortical tissues were incubated at 30° C. for 150 minutes and pancreatic tissues were incubated at 37° C. for 150 min. Incubations were terminated by filtration using Skatron Cell Harvester and SS32 microfiber filter mats. […] IC50 s were determined from the Hill analysis.

Type-A CCK receptor = molecular target: T2, Type-A CCK receptor (Cavia porcellus, UniProt Q63931); assay: Radioligand binding of [125I]BH-CCK-8 in guinea pig pancreatic membrane preparations
T2 construct: Cortical and pancreatic membranes were prepared as described; from tissue; host or cells: guinea pig pancreas membranes
T2 sequence (Q63931 1-430): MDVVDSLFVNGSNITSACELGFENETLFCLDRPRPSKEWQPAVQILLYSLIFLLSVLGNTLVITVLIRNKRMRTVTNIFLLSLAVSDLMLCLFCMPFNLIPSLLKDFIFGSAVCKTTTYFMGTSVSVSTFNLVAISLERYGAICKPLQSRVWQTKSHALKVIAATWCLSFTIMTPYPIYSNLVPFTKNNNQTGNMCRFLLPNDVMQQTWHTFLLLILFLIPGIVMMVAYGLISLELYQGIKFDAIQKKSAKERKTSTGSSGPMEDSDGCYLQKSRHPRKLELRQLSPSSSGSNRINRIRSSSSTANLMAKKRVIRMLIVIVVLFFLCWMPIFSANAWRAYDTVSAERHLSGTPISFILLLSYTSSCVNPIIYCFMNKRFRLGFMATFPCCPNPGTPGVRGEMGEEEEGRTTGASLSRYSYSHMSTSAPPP
Source text: as §1, §2, §3, §4

[1] = guinea pig cortical membranes, 30° C., 150 minutes, read-out: IC50 (nM) 125I-BH-CCK-8 Type-B receptor
[2] = guinea pig pancreatic membranes, 37° C., 150 min, read-out: IC50 (nM) 125I-BH-CCK-8 Type-A receptor

SMILES	IC50 (Type-A CCK receptor) [nM]	other results
CC(C)(C)OC(=O)N[C@@H](Cc1c[nH]c2ccccc12)C(=O)N[C@@H](CCCCNC(=O)Nc1ccccc1)C(=O)N[C@@H](CC(=O)O)C(=O)N[C@@H](Cc1ccccc1)C(N)=O [Example 29, t-BOC-Trp-Lys(ε-N-(phenylaminocarbonyl))-Asp-PheNH2] (Boc-WK([CO-NHPh])DF-NH2)	–	IC50 (Type-B CCK receptor; [1]): 1100 nM
CC(C)(C)NC(=O)NCCCC[C@H](NC(=O)[C@H](Cc1c[nH]c2ccccc12)NC(=O)OC(C)(C)C)C(=O)N[C@@H](CC(=O)O)C(=O)N[C@@H](Cc1ccccc1)C(N)=O [Example 32, t-BOC-Trp-Lys(ε-N-(t-butylaminocarbonyl))-Asp-PheNH2] (Boc-WK([CO-NHtBu])DF-NH2)	–	IC50 (Type-B CCK receptor; [1]): 5600 nM
CC(C)(C)OC(=O)N[C@@H](Cc1c[nH]c2ccccc12)C(=O)N[C@@H](CCCCNC(=O)Nc1ccccc1[N+](=O)[O-])C(=O)N[C@@H](CC(=O)O)C(=O)N[C@@H](Cc1ccccc1)C(N)=O [Example 34, t-BOC-Trp-Lys(ε-N-(2-nitrophenyl)aminocarbonyl)-Asp-PheNH2] (Boc-WK([CO-X14])DF-NH2)	23	–
CC(C)c1ccccc1NC(=O)NCCCC[C@H](NC(=O)[C@H](Cc1c[nH]c2ccccc12)NC(=O)OC(C)(C)C)C(=O)N[C@@H](CC(=O)O)C(=O)N[C@@H](Cc1ccccc1)C(N)=O [Example 41, t-BOC-Trp-Lys(ε-N-(2-isopropylphenyl)aminocarbonyl)-Asp-PheNH2] (Boc-WK([CO-X24])DF-NH2)	–	IC50 (Type-B CCK receptor; [1]): 5700 nM
Cc1ccccc1/N=C(/S)NCCCC[C@H](NC(=O)[C@H](Cc1c[nH]c2ccccc12)NC(=O)OC(C)(C)C)C(=O)N[C@@H](CC(=O)O)C(=O)N[C@@H](Cc1ccccc1)C(N)=O [Example 38, t-BOC-Trp-Lys(ε-N-(2-methylphenyl)aminothiocarbonyl)-Asp-PheNH2]	230	–
CN(C(=O)[C@H](CC(=O)O)NC(=O)[C@H](CCCCNC(=O)C=Cc1ccc(O)cc1)NC(=O)[C@H](Cc1c[nH]c2ccccc12)NC(=O)OC(C)(C)C)[C@@H](Cc1ccccc1)C(N)=O [Example 17, t-BOC-Trp-Lys(ε-N-(4-hydroxycinnamoyl))-Asp-(NMe)PheNH2] (Boc-WK(X1)D[NMeF]-NH2)	–	IC50 (Type-A CCK receptor; [2]): 7 nM
CC(C)(C)OC(=O)N[C@@H](Cc1c[nH]c2ccccc12)C(=O)N[C@@H](CCCCNC(=O)Nc1c(Cl)cccc1Cl)C(=O)N[C@@H](CC(=O)O)C(=O)N[C@@H](Cc1ccccc1)C(N)=O [Example 47, t-BOC-Trp-Lys(ε-N-(2,6-dichlorophenyl)aminocarbonyl)-Asp-PheNH2] (Boc-WK([CO-X26])DF-NH2)	–	IC50 (Type-B CCK receptor; [1]): 7000 nM
CN(C(=O)[C@H](CC(=O)O)NC(=O)[C@H](CCCCNC(=O)c1ccc2cc(O)ccc2c1)NC(=O)[C@H](Cc1c[nH]c2ccccc12)NC(=O)OC(C)(C)C)[C@@H](Cc1ccccc1)C(N)=O [Example 19, t-BOC-Trp-Lys(ε-N-(6-hydroxy-β-naphthoyl))-Asp-(NMe)PheNH2] (Boc-WK(2Naphthoyl(6-OH))D[NMeF]-NH2)	–	IC50 (Type-B CCK receptor; [1]): 730 nM
CC(C)(C)OC(=O)N[C@@H](Cc1c[nH]c2ccccc12)C(=O)N[C@@H](CCCCNC(=O)C=Cc1ccc(F)cc1)C(=O)N[C@@H](CC(=O)O)C(=O)N[C@@H](Cc1ccccc1)C(N)=O [Example 7, t-BOC-Trp-Lys(ε-N-(4-fluorocinnamoyl))-Asp-PheNH2] (Boc-WK(X13)DF-NH2)	65	–
CC(C)(C)OC(=O)N[C@@H](Cc1c[nH]c2ccccc12)C(=O)N[C@@H](CCCCNC(=O)Nc1ccccc1Br)C(=O)N[C@@H](CC(=O)O)C(=O)N[C@@H](Cc1ccccc1)C(N)=O [Example 36, t-BOC-Trp-Lys(ε-N-(2-bromophenyl)aminocarbonyl)-Asp-PheNH2] (Boc-WK([CO-X19])DF-NH2)	7	–
Cc1ccccc1NC(=O)NCCCC[C@H](NC(=O)[C@H](Cc1c[nH]c2ccccc12)NC(=O)OC(C)(C)C)C(=O)N(C)[C@@H](CC(=O)O)C(=O)N[C@@H](Cc1ccccc1)C(N)=O [Example 60, t-BOC-Trp-Lys(ε-N-(2-methylphenyl)aminocarbonyl)-(NMe)Asp-PheNH2] (Boc-WK([CO-NH(2-Me-phenyl)])[NMeD]F-NH2)	4.3	–
CC(C)(C)OC(=O)N[C@@H](Cc1c[nH]c2ccccc12)C(=O)N[C@@H](CCCCNC(=O)Nc1cccc2ccccc12)C(=O)N[C@@H](CC(=O)O)C(=O)N[C@@H](Cc1ccccc1)C(N)=O [Example 28, t-BOC-Trp-Lys(ε-N-(α-naphthyl)aminocarbonyl)-Asp-PheNH2] (Boc-WK([CO-NH(1-naphthyl)])DF-NH2)	–	IC50 (Type-B CCK receptor): 10000 nM
Cc1ccc(/C=C/C(=O)NCCCC[C@H](NC(=O)[C@H](Cc2c[nH]c3ccccc23)NC(=O)OC(C)(C)C)C(=O)N[C@@H](CC(=O)O)C(=O)N[C@@H](Cc2ccccc2)C(N)=O)cc1 [Example 6, t-BOC-Trp-Lys(ε-N-(4-methylcinnamoyl))-Asp-PheNH2] (Boc-WK(X7)DF-NH2)	71	–
CC(C)(C)OC(=O)N[C@@H](Cc1c[nH]c2ccccc12)C(=O)N[C@@H](CCCCNC(=O)CCc1ccc(O)cc1)C(=O)N[C@@H](CC(=O)O)C(=O)N[C@@H](Cc1ccccc1)C(N)=O [Example 1, t-BOC-Trp-Lys(ε-N-(3-(4-hydroxyphenyl)propionyl))-Asp-PheNH2] (Boc-WK(Desaminotyrosyl)DF-NH2)	124	–
CC(C)(C)OC(=O)N[C@@H](Cc1c[nH]c2ccccc12)C(=O)N[C@@H](CCCCNC(=O)C=Cc1ccc(Cl)c(Cl)c1)C(=O)N[C@@H](CC(=O)O)C(=O)N[C@@H](Cc1ccccc1)C(N)=O [Example 15, t-BOC-Trp-Lys(ε-N-(3,4-dichlorocinnamoyl))-Asp-PheNH2] (Boc-WK(X11)DF-NH2)	65	–
CC(C)(C)OC(=O)N[C@@H](Cc1c[nH]c2ccccc12)C(=O)N[C@@H](CCCCNC(=O)C=Cc1cccc(O)c1)C(=O)N[C@@H](CC(=O)O)C(=O)N[C@@H](Cc1ccccc1)C(N)=O [Example 5, t-BOC-Trp-Lys(ε-N-(3-hydroxycinnamoyl))-Asp-PheNH2] (Boc-WK(X21)DF-NH2)	37	–
COc1ccccc1NC(=O)NCCCC[C@H](NC(=O)[C@H](Cc1c[nH]c2ccccc12)NC(=O)OC(C)(C)C)C(=O)N[C@@H](CC(=O)O)C(=O)N[C@@H](Cc1ccccc1)C(N)=O [Example 43, t-BOC-Trp-Lys(ε-N-(2-methoxyphenyl)aminocarbonyl)-Asp-PheNH2] (Boc-WK([CO-X16])DF-NH2)	–	IC50 (Type-A CCK receptor; [2]): 23 nM
CC(C)(C)OC(=O)N[C@@H](Cc1c[nH]c2ccccc12)C(=O)N[C@@H](CCCCNC(=O)C=Cc1ccc(O)c(O)c1)C(=O)N[C@@H](CC(=O)O)C(=O)N[C@@H](Cc1ccccc1)C(N)=O [Example 14, t-BOC-Trp-Lys(ε-N-(3,4-dihydroxycinnamoyl))-Asp-PheNH2] (Boc-WK(X8)DF-NH2)	33	–
CN(C(=O)[C@H](CC(=O)O)NC(=O)[C@H](CCCCNC(=O)/C=C/c1ccc(Cl)cc1)NC(=O)[C@H](Cc1c[nH]c2ccccc12)NC(=O)OC(C)(C)C)[C@@H](Cc1ccccc1)C(N)=O [Example 18, t-BOC-Trp-Lys(ε-N-(4-chlorocinnamoyl))-Asp-(NMe)PheNH2] (Boc-WK(X18)D[NMeF]-NH2)	22	–
